In patent publication US11534434B2 (Karuna Therapeutics, Inc., priority 2019, dated 2022):

Experiments:
human M5 mAChR = target: T1, human M5 mAChR (Homo sapiens, UniProt P08912); experiment: Whole-cell functional agonist activity, FLIPR Ca2+ release, CHOK1-based human M5 mAChR stable cell line; conditions: for EC50: agonist, FLIPR Ca2+ release, CHOK1 human M5 cells; for Emax: top of curve, % activity vs MAX control ligand, FLIPR Ca2+
T1 construct: expressed in transfected cells
T1 sequence (P08912 1-532): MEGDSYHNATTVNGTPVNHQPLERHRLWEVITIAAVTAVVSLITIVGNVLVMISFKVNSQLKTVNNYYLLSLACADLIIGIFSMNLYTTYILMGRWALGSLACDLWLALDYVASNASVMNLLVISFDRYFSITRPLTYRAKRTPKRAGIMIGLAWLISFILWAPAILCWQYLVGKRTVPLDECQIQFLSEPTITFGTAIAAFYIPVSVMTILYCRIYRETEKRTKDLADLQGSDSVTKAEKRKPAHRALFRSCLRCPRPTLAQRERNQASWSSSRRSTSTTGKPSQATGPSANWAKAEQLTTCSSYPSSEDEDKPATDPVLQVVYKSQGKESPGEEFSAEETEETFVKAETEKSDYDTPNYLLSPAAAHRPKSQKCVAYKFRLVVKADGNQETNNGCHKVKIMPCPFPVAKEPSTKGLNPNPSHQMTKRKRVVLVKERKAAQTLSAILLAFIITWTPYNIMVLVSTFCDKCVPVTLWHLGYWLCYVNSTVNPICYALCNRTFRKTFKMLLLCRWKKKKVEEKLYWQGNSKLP
From the text: (§1) Whole-cell functional agonist activity in cells expressing recombinant human muscarinic receptor subtypes.
(§2) ThermoFisher's FLIPR™ (Fluorescence Imaging Plate Reader) was used to quantify Ca^2+ release, a functional effect associated with Gaq-coupled M1 and M5 mAChRs. CisBio's phospho-ERK (pERK) Thr202/Tyr204 was used to evaluate Gai/o-coupled M2 and M4 mAChRs responses.
(§3) One day before the assay, M1, M3, and M5 cells were thawed out and plated at 10,000 cells/well into black-walled, clear-bottom, Poly-D-lysine coated 384-well microplates and incubated at 37° C. and 5% CO2 in MEME+10% FBS+1× penicillin/streptomycin/glutamine, for the M1 and M3 cell lines and F-12+10% FBS+1× penicillin/streptomycin/glutamine for the M5 cell line. […] The M1 and M5 responses were analyzed using the CBIS data analysis suite (ChemInnovation, CA).
(§4) Percentage activity was calculated using the following formula: % Activity=100%×(mean RFU of test sample mean RFU of vehicle control)/(mean MAX RFU control ligand mean RFU of vehicle control) where RFU is relative fluorescence unit. The M2 and the M4 cells were thawed out one day before the assay and plated at 2,000 and 1,000 cells per well, respectively, in […] of DMEM/F12+10% FBS in ProxiPlate 384-well white-walled, white-bottom tissue culture-treated plates and incubated at 37° C. and 5% CO2 overnight. Before the assay, cells were serum-starved at 37° C. in 5% CO2 for 4 hours by replacing culture media with […] of F12 media with 8 mM HEPES. The pERK assay was run according to assay kit instructions with minor volume modifications outlined below.

human M4 mAChR = target: T2, human M4 mAChR (Homo sapiens, UniProt P08173); experiment: Whole-cell functional agonist activity, phospho-ERK (pERK), CHOK1-based human M4 mAChR stable cell line; conditions: for EC50: agonist, CHOK1 human M4 cells; for M4 Top (%): top of curve, % of min (DMSO) and max (10 mM Acetylcholine) responses
T2 construct: expressed in transfected cells
T2 sequence (P08173 1-479): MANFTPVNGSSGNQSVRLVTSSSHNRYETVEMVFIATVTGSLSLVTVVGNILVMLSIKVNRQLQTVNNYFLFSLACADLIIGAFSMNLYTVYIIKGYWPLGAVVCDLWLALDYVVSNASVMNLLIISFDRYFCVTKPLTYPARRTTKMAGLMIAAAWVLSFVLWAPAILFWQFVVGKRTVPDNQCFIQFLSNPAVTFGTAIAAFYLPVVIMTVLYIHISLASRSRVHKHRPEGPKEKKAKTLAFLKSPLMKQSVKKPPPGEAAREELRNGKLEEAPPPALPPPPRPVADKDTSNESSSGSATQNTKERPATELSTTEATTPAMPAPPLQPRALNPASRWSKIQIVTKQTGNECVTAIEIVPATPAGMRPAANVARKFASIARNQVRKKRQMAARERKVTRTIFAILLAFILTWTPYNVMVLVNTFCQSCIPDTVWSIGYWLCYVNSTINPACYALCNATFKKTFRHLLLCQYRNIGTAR
Experimental: as §1, §2, §4
(§5) Compound addition was carried out by adding 3× compound solution in […] of media with 0.3% DMSO (made from a 10 mM compound stock solution in 100% DMSO) for 5 minutes before the reaction was terminated by adding […] lysis and blocking solution. Cells were left in the lysis solution for 30 minutes before […] of antibody (Eu and d2) solution was added for an additional 2-hour incubation while protected from light. The plates were then read on laser Pherastar using the TR-FRET protocol.

human M2 mAChR = target: T3, human M2 mAChR (Homo sapiens, UniProt P08172); experiment: Whole-cell functional agonist activity, phospho-ERK (pERK), CHOK1-based human M2 mAChR stable cell line; conditions: for EC50: agonist, CHOK1 human M2 cells; for M2 Top (%): top of curve, % of min (DMSO) and max (10 mM Acetylcholine) responses
T3 construct: expressed in transfected cells
T3 sequence (P08172 1-466): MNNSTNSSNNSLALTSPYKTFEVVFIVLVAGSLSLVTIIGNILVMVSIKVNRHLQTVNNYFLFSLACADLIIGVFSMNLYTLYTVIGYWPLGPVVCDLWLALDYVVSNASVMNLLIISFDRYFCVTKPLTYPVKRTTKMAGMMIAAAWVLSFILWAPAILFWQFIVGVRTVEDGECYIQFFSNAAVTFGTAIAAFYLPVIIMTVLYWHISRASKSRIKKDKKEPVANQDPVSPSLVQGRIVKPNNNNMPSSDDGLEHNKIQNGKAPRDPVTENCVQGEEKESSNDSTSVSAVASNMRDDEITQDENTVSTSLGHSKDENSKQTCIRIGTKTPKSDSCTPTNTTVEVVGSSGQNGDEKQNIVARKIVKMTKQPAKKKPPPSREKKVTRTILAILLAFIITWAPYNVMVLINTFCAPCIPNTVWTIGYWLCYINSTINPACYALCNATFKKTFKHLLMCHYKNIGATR
Experimental: as §1, §2, §4, §5

human M1 mAChR = target: T4, human M1 mAChR (Homo sapiens, UniProt P11229); experiment: Whole-cell functional agonist activity, FLIPR Ca2+ release, U2OS-based human M1 mAChR stable cell line; conditions: for EC50: agonist, FLIPR Ca2+ release, U2OS human M1 cells; for Emax: top of curve, % activity vs MAX control ligand, FLIPR Ca2+
T4 construct: expressed in transfected cells
T4 sequence (P11229 1-460): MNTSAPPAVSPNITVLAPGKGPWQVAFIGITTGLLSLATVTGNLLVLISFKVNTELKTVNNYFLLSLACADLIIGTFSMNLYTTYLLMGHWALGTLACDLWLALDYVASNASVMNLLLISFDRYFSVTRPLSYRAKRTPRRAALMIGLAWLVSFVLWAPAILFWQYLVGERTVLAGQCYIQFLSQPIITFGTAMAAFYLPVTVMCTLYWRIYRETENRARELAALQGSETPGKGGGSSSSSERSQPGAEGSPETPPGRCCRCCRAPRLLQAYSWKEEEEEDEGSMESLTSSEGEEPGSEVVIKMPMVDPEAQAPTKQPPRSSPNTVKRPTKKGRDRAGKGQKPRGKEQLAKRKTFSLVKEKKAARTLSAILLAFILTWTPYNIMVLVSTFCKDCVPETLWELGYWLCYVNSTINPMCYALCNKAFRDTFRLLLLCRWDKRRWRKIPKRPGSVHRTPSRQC
From the text: as §1, §2, §3, §4

Row | EC50 (human M5 mAChR) [nM] | Emax (human M5 mAChR) [%] | EC50 (human M4 mAChR) [nM] | M4 Top (%) (human M4 mAChR) | EC50 (human M2 mAChR) [nM] | M2 Top (%) (human M2 mAChR) | EC50 (human M1 mAChR) [nM] | Emax (human M1 mAChR) [%] | SMILES
1 | 140 | 40 | > 34 | 5 | > 34 | 1 | 28.4 | 46 | CCC(F)(F)CCCOc1nsnc1C1=CCCN(C)C1 [Example 9, 3-((4,4-Difluorohexyl)oxy)-4-(1-methyl-1,2,5,6-tetrahydropyridin-3-yl)-1,2,5-thiadiazole]
2 | 2290 | 45 | 374 | 62 | > 34 | 0 | 29 | 32 | CCCCC(F)(F)COc1nsnc1C1=CCCN(C)C1 [Example 11, 3-((2,2-Difluorohexyl)oxy)-4-(1-methyl-1,2,5,6-tetrahydropyridin-3-yl)-1,2,5-thiadiazole]

Continued, compound first:

Row | SMILES | EC50 (human M5 mAChR) [nM] | Emax (human M5 mAChR) [%] | EC50 (human M4 mAChR) [nM] | M4 Top (%) (human M4 mAChR) | EC50 (human M2 mAChR) [nM] | M2 Top (%) (human M2 mAChR) | EC50 (human M1 mAChR) [nM] | Emax (human M1 mAChR) [%]
3 | CN1CCC=C(c2nsnc2OCCCCCC(F)(F)F)C1 [Example 1, 3-(1-Methyl-1,2,5,6-tetrahydropyridin-3-yl)-4-((6,6,6-trifluorohexyl)oxy)-1,2,5-thiadiazole] | 22.4 | 85 | 15.7 | 82 | > 34 | 1 | 3.7 | 90
4 | CN1CCC=C(c2nsnc2OCCCCCC(F)F)C1 [Example 6, 3-((6,6-difluorohexyl)oxy)-4-(1-methyl-1,2,5,6-tetrahydropyridin-3-yl)-1,2,5-thiadiazole] | 14.7 | 95 | 11 | 108 | > 34 | 2 | 2.5 | 94
5 | CN1CCC=C(c2nsnc2OCCCCCCF)C1 [Example 7, 3-((6-Fluorohexyl)oxy)-4-(1-methyl-1,2,5,6-tetrahydropyridin-3-yl)-1,2,5-thiadiazole] | 13.2 | 90 | 8.3 | 112 | > 34 | 3 | 3.1 | 93
6 | CN1CCC=C(c2nsnc2OCCCCC(C)(F)F)C1 [Example 8, 3-((5,5-Difluorohexyl)oxy)-4-(1-methyl-1,2,5,6-tetrahydropyridin-3-yl)-1,2,5-thiadiazole] | 27.2 | 85 | 12.6 | 48 | > 34 | 0 | 5.7 | 87
